Laboratory results as given in PMC8269283 (ACS chemical neuroscience, 2018).
Read-outs that look alike come from different tables or passages of the source.

Columns and labels:
DAT [1] = target: T1, DAT (Rattus norvegicus, UniProt P23977); experiment: transporter-mediated release in rat brain synaptosomes, DAT; type: biochemical; details: for DAT vs SERT Selectivity: SERT EC50 ÷ DAT EC50
DAT [2] = target: T1, DAT; details: cited from earlier work
NET [3] = target: NET (Rattus norvegicus, UniProt Q63380); details: read-out: EC50 as NET releasing agent, previously reported; cited from earlier work
SERT [4] = target: T2, SERT (Rattus norvegicus, UniProt P31652); details: cited from earlier work
SERT [5] = target: T2, SERT; experiment: transporter-mediated release in rat brain synaptosomes, SERT; type: biochemical
NET [6] = details: read-out: IC50 reuptake inhibitor at NET; cited from earlier work
SERT [7] = details: read-out: IC50 reuptake inhibitor at SERT; cited from earlier work
DAT [8] = details: cited from earlier work
SERT [9] = details: cited from earlier work
DAT [10] = details: read-out: IC50 reuptake inhibitor at DAT; cited from earlier work
NET [11] = details: read-out: IC50 reuptake inhibitor at NET; cited from earlier work; remark: listed apart in the source
SERT [12] = details: read-out: IC50 reuptake inhibitor at SERT; cited from earlier work; remark: listed apart in the source

T2 sequence (P31652 whole entry): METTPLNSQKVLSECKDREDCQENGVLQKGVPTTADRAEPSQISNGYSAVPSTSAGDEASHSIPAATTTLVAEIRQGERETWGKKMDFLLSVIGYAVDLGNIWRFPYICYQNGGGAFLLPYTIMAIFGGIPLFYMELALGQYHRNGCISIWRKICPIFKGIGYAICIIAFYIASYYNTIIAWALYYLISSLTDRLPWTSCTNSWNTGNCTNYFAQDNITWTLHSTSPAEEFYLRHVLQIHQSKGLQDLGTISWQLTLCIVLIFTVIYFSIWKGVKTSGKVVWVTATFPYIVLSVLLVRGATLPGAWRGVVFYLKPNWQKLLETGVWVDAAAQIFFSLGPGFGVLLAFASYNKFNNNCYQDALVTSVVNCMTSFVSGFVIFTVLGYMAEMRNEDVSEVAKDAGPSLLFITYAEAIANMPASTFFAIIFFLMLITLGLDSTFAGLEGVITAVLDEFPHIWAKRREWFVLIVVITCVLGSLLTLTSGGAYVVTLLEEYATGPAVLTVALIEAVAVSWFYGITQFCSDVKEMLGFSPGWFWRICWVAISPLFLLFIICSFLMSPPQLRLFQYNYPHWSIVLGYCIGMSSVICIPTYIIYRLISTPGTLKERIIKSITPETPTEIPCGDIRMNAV
T1 sequence (P23977 whole entry): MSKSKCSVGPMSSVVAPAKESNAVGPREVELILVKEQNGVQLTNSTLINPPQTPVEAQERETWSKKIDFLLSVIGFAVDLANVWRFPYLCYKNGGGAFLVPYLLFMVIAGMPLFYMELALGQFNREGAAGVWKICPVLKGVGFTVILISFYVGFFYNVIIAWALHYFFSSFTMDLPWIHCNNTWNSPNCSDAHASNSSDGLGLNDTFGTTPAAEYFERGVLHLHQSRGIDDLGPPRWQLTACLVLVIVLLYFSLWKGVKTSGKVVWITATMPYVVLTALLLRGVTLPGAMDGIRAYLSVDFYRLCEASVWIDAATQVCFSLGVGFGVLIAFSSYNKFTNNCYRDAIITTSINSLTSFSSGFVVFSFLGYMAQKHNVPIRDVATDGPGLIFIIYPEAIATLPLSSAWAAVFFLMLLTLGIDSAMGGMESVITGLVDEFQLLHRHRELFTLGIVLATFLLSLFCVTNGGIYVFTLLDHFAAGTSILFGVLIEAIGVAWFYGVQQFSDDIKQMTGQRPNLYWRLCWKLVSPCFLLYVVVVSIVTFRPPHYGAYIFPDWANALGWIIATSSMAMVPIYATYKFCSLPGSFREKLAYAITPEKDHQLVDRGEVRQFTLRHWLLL
NET (Rattus norvegicus, UniProt Q63380), sequence (Q63380 1-617): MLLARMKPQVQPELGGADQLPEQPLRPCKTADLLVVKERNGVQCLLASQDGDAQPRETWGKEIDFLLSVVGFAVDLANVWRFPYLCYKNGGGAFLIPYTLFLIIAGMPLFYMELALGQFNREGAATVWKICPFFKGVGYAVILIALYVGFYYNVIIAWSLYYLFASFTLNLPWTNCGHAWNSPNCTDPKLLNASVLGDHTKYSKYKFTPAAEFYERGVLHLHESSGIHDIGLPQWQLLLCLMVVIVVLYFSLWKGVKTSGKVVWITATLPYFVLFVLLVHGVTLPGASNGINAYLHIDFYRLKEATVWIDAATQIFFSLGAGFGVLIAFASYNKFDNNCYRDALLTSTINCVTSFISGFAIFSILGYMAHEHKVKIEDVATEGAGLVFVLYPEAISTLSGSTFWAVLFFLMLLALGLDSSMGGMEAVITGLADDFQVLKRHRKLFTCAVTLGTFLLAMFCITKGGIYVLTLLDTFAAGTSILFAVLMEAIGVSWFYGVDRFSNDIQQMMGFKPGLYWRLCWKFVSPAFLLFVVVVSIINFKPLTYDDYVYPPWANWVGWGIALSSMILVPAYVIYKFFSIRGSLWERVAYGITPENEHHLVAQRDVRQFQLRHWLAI

| SMILES | DAT vs SERT Selectivity (DAT [1]; 3-substituted series) | DAT vs SERT Selectivity (DAT [1]; 2-substituted series) | EC50 (DAT [1]) [nM] | EC50 (SERT [5]) [nM] | further results |
| --- | --- | --- | --- | --- | --- |
| CNC(C)C(=O)c1cccc(Cl)c1 (stereo not drawn) [3a, 3-Chloromethcathinone] | 8 |  |  |  | EC50 (DAT [2]; read-out: EC50 as DAT releasing agent, previously reported): 29 nM; EC50 (NET [3]): 40 nM; EC50 (SERT [4]; read-out: EC50 as SERT releasing agent, previously reported): 212 nM |
| CNC(C)C(=O)c1ccccc1 (stereo not drawn) [compound 1, Methcathinone] | 279 | 103 |  |  | selectivity for DAT vs SERT as a releasing agent (DAT [2]): > 300 fold |
| CNC(C)C(=O)c1ccccc1Br.Cl (stereo not drawn) [2b, 1-(2-Bromophenyl)-2-(methylamino)propan-1-one Hydrochloride] |  | 4 | 650 | 2840 |  |
| CNC(C)C(=O)c1ccccc1Cl.Cl (stereo not drawn) [2a, 1-(2-Chlorophenyl)-2-(methylamino)propan-1-one Hydrochloride] |  | 16 | 179 | 2810 |  |
| CNC(C)C(=O)c1cccc(Br)c1.Cl (stereo not drawn) [3b, 1-(3-Bromophenyl)-2-(methylamino)propan-1-one Hydrochloride] | 6 |  | 21 | 136 | IC50 (NET [6]): 158 nM; IC50 (SERT [7]): 2000 nM |
| CNC(C)C(=O)c1cccc(OC)c1.Cl (stereo not drawn) [3d, 2-(Methylamino)-1-(3-methoxyphenyl)propan-1-one Hydrochloride] | 6 |  | 109 | 683 |  |
| CNC(C)C(=O)c1cccc(C(F)(F)F)c1.Cl (stereo not drawn) [3e, 2-(Methylamino)-1-(3-(trifluoromethyl)phenyl)propan-1-one Hydrochloride] | 0.4 |  | 714 | 281 |  |
| CNC(C)C(=O)c1ccccc1C(F)(F)F (stereo not drawn) [2-CF3 analog] |  |  |  |  | less potent than 3e as a releasing agent at DAT (DAT [8]): > 10 fold; less potent than 3e as a releasing agent at SERT (SERT [9]): > 10 fold |
| CNC(C)C(=O)c1ccc(C(F)(F)F)cc1 (stereo not drawn) [4e] |  |  |  |  | SERT selectivity (SERT vs DAT) as a releasing agent (SERT [4]): 14 fold |
| CNC(C)C(=O)c1cccc(C)c1.Cl (stereo not drawn) [3c, 2-(Methylamino)-1-(3-methylphenyl)propan-1-one Hydrochloride] | 10 |  | 28 | 268 | IC50 (DAT [10]): 2600 nM; IC50 (NET [11]): 270 nM; IC50 (SERT [12]): 9.5 µM |
| CNC(C)C(=O)c1ccccc1C.Cl (stereo not drawn) [2c, 2-(Methylamino)-1-(2-methylphenyl)propan-1-one Hydrochloride] |  | 6 | 81 | 490 |  |
| CNC(C)C(=O)c1ccccc1OC.Cl (stereo not drawn) [2d, 1-(2-Methoxyphenyl)-2-(methylamino)propan-1-one Hydrochloride] |  | 8 | 920 | 7220 |  |
